Key:
SGLT-2 = target: T1, SGLT-2 (Homo sapiens, UniProt P31639); experiment: in-vitro assay: inhibition of sodium dependent [14C]-AMG uptake into CHO cells stably expressing human SGLT-2; assay type: cell-based; conditions: for IC50: CHO cells stably expressing human SGLT-2, [14C]-AMG uptake, 37°C, 1hr; for Selectivity: ratio SGLT-1 IC50 / SGLT-2 IC50
T1 construct: expressed in transfected cells
T1 sequence (P31639 1-672): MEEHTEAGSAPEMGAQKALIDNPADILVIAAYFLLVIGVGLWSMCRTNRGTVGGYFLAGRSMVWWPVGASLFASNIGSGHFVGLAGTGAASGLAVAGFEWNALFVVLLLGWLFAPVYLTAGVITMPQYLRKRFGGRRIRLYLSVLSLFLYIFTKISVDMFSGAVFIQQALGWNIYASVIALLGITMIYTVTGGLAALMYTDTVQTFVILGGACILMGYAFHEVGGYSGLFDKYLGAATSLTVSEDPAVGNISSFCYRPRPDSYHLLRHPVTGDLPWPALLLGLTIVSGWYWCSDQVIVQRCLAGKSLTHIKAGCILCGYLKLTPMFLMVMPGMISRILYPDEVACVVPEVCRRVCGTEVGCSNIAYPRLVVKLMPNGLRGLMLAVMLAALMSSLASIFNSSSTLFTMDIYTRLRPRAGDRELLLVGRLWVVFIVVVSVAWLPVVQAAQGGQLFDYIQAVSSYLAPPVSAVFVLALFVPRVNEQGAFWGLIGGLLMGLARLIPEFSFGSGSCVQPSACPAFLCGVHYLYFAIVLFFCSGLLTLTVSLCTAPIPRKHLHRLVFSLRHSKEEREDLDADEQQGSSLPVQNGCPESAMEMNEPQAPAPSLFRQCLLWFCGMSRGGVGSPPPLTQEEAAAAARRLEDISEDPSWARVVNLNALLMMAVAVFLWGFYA
Experimental: In the in-vitro assay for the pharmacological activities of the present compounds, the human SGLT-2 and SGLT-1 sequences were transfected to Chinese hamster ovary cells to express stably. By measuring inhibition of the sodium dependent adsorption of [^14C]-labeled […]-D-glucopyranoside (AMG) into the cells, the half-inhibition concentration IC50 was determined.
Buffer A (KRH-Na^+): 120 mM NaCl, 4.7 mM KCI, 1.2 mM MgCl2, 2.2 mM CaCl2, 10 mM HEPES (PH 7.4 with 1 mM Tris).
Buffer A- (KRH-NMG): 120 mM NMG, 4.7 mM KCl, 1.2 mM MgCl2, 2.2 mM CaCl2, 10 mM HEPES (PH 7.4 with 1 mM Tris).
Buffer D: 120 mM NaCl, 4.7 mM KCl, 1.2 mM MgCl2, 2.2 mM CaCl2, 10 mM HEPES, 0.5 mM phlorizin (PH 7.4 with 1 mM Tris).
Assay method: Human SGLT-2 and SGLT-1 sequences were stably expressed in the CHO cells. The cell culture was conducted in a 96-well plate for 12hr. The plate was washed with KRH-Na+ (Buffer A) or KRH-NMG (Buffer A-) buffering solution for three times, 200µL/well. Then the plate was added with a buffering solution containing Buffer A or Buffer A- plus [^14C]-AMG (10 µCi/mL), 100µL/well. The cell culture was conducted at 37°C for 1hr. Then, 100µL of an ice pre-cooled buffering solution (Buffer D) was added to terminate the assay. The plate was washed for five times. Then an ice pre-cooled lytic buffering solution (100mM NaOH solution) was added, 20 µL/well, and the centrifugation at 600rpm was conducted for 5mins. Then Microscint 40 solution was added, 80 µl/well, and the centrifugation at 600rpm was conducted for 5mins. Finally, the radioactivity of [^14C]-AMG was detected with MicroBeta Trilux (purchased from PerkinElmer Co. Ltd.) according to the scintillation counting method, and the half-inhibition concentration IC50 was calculated.

[1] = rat in-vivo pharmacokinetic assay (PO); conditions: Sprague-Dawley (SD), male SD rats, 10 mg/kg; for Cmax: peak concentration in the plasma; for AUC(0-t) / AUC(0-inf) / half-life / Tmax: plasma; for AUC(0-t): area under curve from time=0→t; for AUC(0-inf): area under curve from time=0→∞; for Tmax: time to peak the concentration in the plasma
Experimental: Assay animals: 6-8 weeks aged male SD rats (purchased from Vital River Laboratories), 3 rats per compound, weighing 200-240g.
Solvent: 0.5% MC(methyl cellulose) solution + 0.1% SDS (sodium dodecyl sulfate).
Intragastric administration (PO): See Table 2 Table 2 Administration of compounds in the rat PK (pharmacokinetic) assay
Blood collection: each of 200 µL whole blood were collected at 0.17hr, 0.5hr, 1hr, 2hr, 4hr, 6hr, 8hr, 24hr, 30hr, 48hr, 54hr and 72hr. The collected blood samples were centrifuged at 4°C at 8000rpm in a low temperature high-speed centrifuge (5415R, Eppendorf) for 6mins to separate the blood plasma. The separated plasma was preserved at -80 °C in a refrigerator.
20µL of the plasma was carefully taken out, to which was added 600µL of an internal standard MTBE (methyl tert-butyl ether) solution (containing internal standard dapagliflozin 25ng/ml). The plasma was subjected to a vortex at 1500 rpm for 10mins, and then centrifuged at 12000 rpm for 5mins. 400µL of the supernatant was taken and blow-dried with nitrogen gas. The dried substance was redissolved with 200µL of a redissolving solution (acetonitrile:water=7:3). The solution was subjected to a vortex for 10mins, and analyzed with LC-MS/MS (API4000, Aplplied Biosystems). Table 3. Rat PK (pharmacokinetic) evaluation results (PO) for the compounds

SGLT-1 = target: T2, SGLT-1 (Homo sapiens, UniProt P13866); experiment: in-vitro assay: inhibition of sodium dependent [14C]-AMG uptake into CHO cells stably expressing human SGLT-1; assay type: cell-based; conditions: 37°C, 1hr
T2 construct: expressed in transfected cells
T2 sequence (P13866 1-664): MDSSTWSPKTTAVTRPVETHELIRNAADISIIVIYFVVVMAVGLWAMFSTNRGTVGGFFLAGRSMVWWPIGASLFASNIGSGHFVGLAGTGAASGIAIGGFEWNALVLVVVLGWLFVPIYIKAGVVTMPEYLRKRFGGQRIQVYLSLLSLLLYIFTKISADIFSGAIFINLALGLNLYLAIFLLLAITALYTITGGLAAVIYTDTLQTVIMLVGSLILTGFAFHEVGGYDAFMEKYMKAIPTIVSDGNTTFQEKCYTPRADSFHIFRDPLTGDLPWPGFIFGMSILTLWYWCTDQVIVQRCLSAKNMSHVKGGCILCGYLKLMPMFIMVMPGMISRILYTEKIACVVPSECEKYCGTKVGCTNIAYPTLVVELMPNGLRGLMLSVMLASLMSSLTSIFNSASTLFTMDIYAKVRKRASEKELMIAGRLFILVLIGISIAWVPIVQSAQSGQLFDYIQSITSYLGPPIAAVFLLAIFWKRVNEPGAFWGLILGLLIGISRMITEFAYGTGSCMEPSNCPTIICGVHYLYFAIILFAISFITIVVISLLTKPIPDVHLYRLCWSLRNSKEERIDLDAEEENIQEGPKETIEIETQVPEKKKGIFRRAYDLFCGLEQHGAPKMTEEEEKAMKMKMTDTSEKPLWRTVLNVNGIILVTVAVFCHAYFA
Experimental: In the in-vitro assay for the pharmacological activities of the present compounds, the human SGLT-2 and SGLT-1 sequences were transfected to Chinese hamster ovary cells to express stably. By measuring inhibition of the sodium dependent adsorption of [^14C]-labeled […]-D-glucopyranoside (AMG) into the cells, the half-inhibition concentration IC50 was determined. […] Buffer D: 120 mM NaCl, 4.7 mM KCl, 1.2 mM MgCl2, 2.2 mM CaCl2, 10 mM HEPES, 0.5 mM phlorizin (PH 7.4 with 1 mM Tris). Assay method: Human SGLT-2 and SGLT-1 sequences were stably expressed in the CHO cells. […] The plate was washed for five times. […] Finally, the radioactivity of [^14C]-AMG was detected with MicroBeta Trilux (purchased from PerkinElmer Co. Ltd.) according to the scintillation counting method, and the half-inhibition concentration IC50 was calculated.

Row | Compound | IC50 (SGLT-2) [µM] | Cmax [1] [ng/mL] | AUC(0-t) [1] [ng·h/mL] | AUC(0-inf) [1] [ng·h/mL] | half-life [1] [h] | Tmax [1] [h] | Selectivity (SGLT-2) | IC50 (SGLT-1) [µM]
1 | OC[C@H]1O[C@H](c2ccc(Cl)c(Cc3ccc(O[C@@H]4C[C@@H]5C[C@@H]5C4)cc3)c2)[C@H](O)[C@@H](O)[C@@H]1O [Compound represented by formula (V), (2R,3R,4R,5S,6R)-2-(3-(4-(((1R,3r,5S)-bicyclo[3.1.0]hexan-3-yl)oxy)benzyl)-4-chlorophenyl)-6-(hydroxymethyl)tetrahydro-2H-pyran-3,4,5-triol] | 0.282 | – | – | – | – | – | – | –
2 | OC[C@H]1O[C@@H](c2ccc(Cl)c(Cc3ccc(O[C@@H]4C[C@@H]5C[C@@H]5C4)cc3)c2)[C@H](O)[C@@H](O)[C@@H]1O [Compound represented by formula (III), (2S,3R,4R,5S,6R)-2-(3-(4-(((1R,3r,5S)-bicyclo[3.1.0]hexan-3-yl)oxy)benzyl)-4-chlorophenyl)-6-(hydroxymethyl)tetrahydro-2H-pyran-3,4,5-triol] | 0.00783 | – | – | – | – | – | – | –
3 | OC[C@H]1O[C@@H](c2ccc(Cl)c(Cc3ccc(OC4CC5CC5C4)cc3)c2)[C@H](O)[C@@H](O)[C@@H]1O (some centres unmarked) [Reference compound 2] | – | 4980 | 69300 | 69400 | 8.18 | 2 | – | –
4 | OC[C@H]1O[C@H](c2ccc(Cl)c(Cc3ccc(O[C@H]4C[C@@H]5C[C@@H]5C4)cc3)c2)[C@H](O)[C@@H](O)[C@@H]1O [Compound represented by formula (IV), (2R,3R,4R,5S,6R)-2-(3-(4-(((1R,3s,5S)-bicyclo[3.1.0]hexan-3-yl)oxy)benzyl)-4-chlorophenyl)-6-(hydroxymethyl)tetrahydro-2H-pyran-3,4,5-triol] | 1.11 | – | – | – | – | – | – | –
5 | OC[C@H]1OC(c2ccc(Cl)c(Cc3ccc(OC4CC5CC5C4)cc3)c2)[C@H](O)[C@@H](O)[C@@H]1O (some centres unmarked) [Reference compound 1] | 0.00363 | 4140 | 69600 | 70300 | 10.3 | 2 | 660.52 | 2.4
6 | OC[C@H]1O[C@@H](c2ccc(Cl)c(Cc3ccc(O[C@H]4C[C@@H]5C[C@@H]5C4)cc3)c2)[C@H](O)[C@@H](O)[C@@H]1O [Compound represented by formula (II), (2S,3R,4R,5S,6R)-2-(3-(4-(((1R,3s,5S)-bicyclo[3.1.0]hexan-3-yl)oxy)benzyl)-4-chlorophenyl)-6-(hydroxymethyl)tetrahydro-2H-pyran-3,4,5-triol] | 0.0025 | – | – | – | – | 1 | 6886.93 | 17.2

Source: patent EP2891654B1, “Optically pure benzyl-4-chlorophenyl-C-glucoside derivatives as SGLT inhibitors (diabetes mellitus)” (Xuanzhu Pharma Co., Ltd., priority 2014, dated 2015)
